According to patent publication US20240216412A1, “OXIDIZED NICOTINAMIDE ADENINE DINUCLEOTIDE (NAD+) PRECURSOR TREATMENT FOR HEART FAILURE ALLEVIATION INDEPENDENT OF MITOCHONDRIAL PROTEIN DEACETYLATION” (University of Washington, priority 2022, published 2024):

Key:
Format in all cases: in vivo, mouse
[1] = system: mitochondrial protein acetylation; Mrpp2, mt-Cox1, mt-Nd1 protein levels; assay: Western blot of cardiac mitochondrial protein acetylation and of Mrpp2, mt-Cox1, mt-Nd1
Method: Western blot. For Western blot procedures cardiac tissues were homogenized with RIPA buffer (ThermoScientific Pierce RIPA Buffer #89900) and protease inhibitors (Roche Cat. No. 11-836-170-001) using bullet blender at 4° C. for 10 minutes. Protein concentrations of supernatants were collected after centrifugation and quantified using Pierce™ BCA® Protein Assay Kits and Reagents (#23225). Protein lysates in Lammeli sample buffer were loaded to 10% SDS-PAGE, transferred to PVDF membrane and blocked with 5% BSA in TSBT. Specific proteins were detected by specific antibodies listed above and corresponding secondary antibodies. Signals were visualized by HRP derived chemiluminescence (Amersham ECL Western Blotting Detection System #RPN2106) and film. Protein levels were quantified by Image-J.
Mitochondrial Isolation from cardiac tissue. Hearts were excised from mice, the aortas and atria were removed. Heart tissues were rinsed briefly in ice-cold mitochondria isolation medium (MIM) (70 mM sucrose, 220 mM mannitol, 5 mM MOPS, 1 mM EDTA, 0.025% fatty acid-free BSA, pH 7.4 with 5M KOH) to remove residual blood. Tissues were minced on ice and resuspended in fresh MIM, followed by trypsin digestion (10 ug/ml) and incubated on ice for 10 min. Trypsin digestion was stopped by the addition of trypsin inhibitor (0.5 mg/ml) and additional BSA (1 mg/ml) to MIM. The tissue pellets were resuspended in fresh MIM containing 1 mg/ml BSA, and transferred to a Teflon-glass tube and homogenized on ice with a Teflon pestle. The homogenates were centrifuged for 10 min at 800×g at 4° C. The supernatants were collected and centrifuged for 10 min at 8,000×g at 4° C. The supernatant was discarded and the mitochondrial pellets were resuspended in MIM to wash. The resuspension was centrifuged for 10 min at 8,000×g at 4° C., and the supernatant discarded. The mitochondrial pellet was resuspended to a concentrated volume for protein quantification by BCA Assay (Pierce).
Antibodies. Acetylated lysine antibody (Cell Signaling 9441s), Mrpp2 (Hsd17b10, ERAB) from Proteintech catalog number 10648-1-AP, Mrrp1 (Trmt10c) from Proteintech catalog number 29087-1-AP, Mt-C01 from Abcam [1D6E1A8] (ab14705), and Mt-Nd1 from Santa Cruz (C-18) catalog sc-20493, RXRα (Cell Signaling D6H10) Rabbit mAb, SirT3 (Cell Signaling D22A3) Rabbit mAb, ATP5B (E-1) Santa Cruz Biotechnology sc-55597.

[2] = system: isoproterenol (ISO) induced heart failure in WT and Sirt3Ko mice; assay: Isoproterenol (ISO) minipump induced heart failure, echocardiography and HW/TL; details: 14 days of ISO, NR 500 mg/kg body weight IP daily
Method: Minipump implantation. Pathologic hypertrophy was induced by treating male (3-4 months old) Sirt3ko and WT mice with isoproterenol (ISO) or vehicle for 14 days. Mice with and without GW6471(4.5 mg/kg/day) were treated with NR (500 mg/kg body weight IP daily) or vehicle starting at day one after mini-pump insertion. Briefly, an incision was made in the skin between the shoulder blades. A deep subcutaneous pocket was made caudal to the incision using blunt dissection. The sterile minipump (Alzet #2002) was inserted into the pocket, and the incision was closed with wound clips. Isoproterenol (30 mg/kg/day) was delivered by osmotic minipump for 14 days. Minipumps carrying saline were used as a control.
Transthoracic Echocardiography. Echocardiography of hearts was performed at indicated time after surgery using the VEVO 2100 high-frequency, high-resolution digital imaging system (VisualSonics) equipped with a MS400 Microscan Transducer on anesthetized mice (0.5%-2% isoflurane in 95% oxygen). Measurements were made when heart rate was >450 bpm. Cardiac function and geometry measurements were measured in parasternal short axis view. M-mode images were used for analysis and calculated by the average of at least three cardiac cycles and carried out in a blind fashion. Hearts were harvested at 12-week post-surgery for subsequent experiments and biochemical assays.
Organ weight and histological assessment. Hearts from mice were harvested, rinsed briefly in 1×PBS, blotted dry, and weighed. Lungs from the same mice were harvested, weighed, then dried at 56 C. After 72 hours the lungs were weighed again. Heart weight (HW) and Lung weight (LW) was normalized to tibia length (TL) to assess changes in hypertrophic growth and lung edema, respectively. For histology, hearts were perfusion fixed with 10% neutral buffered formalin. Longitudinal sections of hearts were stained with Masson's Trichrome for assessment of fibrosis by the University of Washington Histology and Imaging Core.

[3] = system: NAD(H) levels in hearts and livers; assay: Heart and liver NAD+/NADH after oral or IP NR administration (Experimental Example 2)
Method: Mice 2-4 months old were used, weighing 25 to 27 g, with water intake ranging from 3.5 to 6.5 ml/day. To each mouse, either NR as an NAD precursor was administered daily or vehicle was administered daily, for up to 10 days, either by IP injection or orally by drinking water. Saline was used as vehicle for IP injection. For oral administration, vehicle was unmodified drinking water. NR was supplied substantially as in Experimental Example 1. For IP administration, NR was diluted in sterile, pharmaceutical-grade isotonic saline at concentrations based on weight-based dosing per subject to provide respective 500 mg/kg body weight daily doses as administrated by IP injection. Additionally, for oral administration, NR was dissolved in sterile filtered water at concentrations based on weight-based dosing per subject to provide respective 400 mg/kg body weight daily doses, provided for drinking adlibitum. […] Over the first several days of oral administration of NR solutions, the consumption of NR water was monitored daily to verify that mice are not finding the NR water unpalatable and becoming dehydrated. […] NAD^+ and NADH were determined in approximately 6 mg heart tissue and approximately 6 mg liver tissue using BioAssay Systems EnzyChrom NAD^+/NAD Assay Kit ([…]-100) per manufactures instructions.

NC(=O)c1ccc[n+]([C@@H]2O[C@H](CO)[C@@H](O)[C@H]2O)c1 [NR, Nicotinamide riboside chloride]
Mitochondrial protein acetylation ([1]; NR treated Sirt3Ko mice): no change | Mrpp2 protein level ([1]; NR treated TAC hearts): normalization | Protein levels of mt-Cox1 and mt-Nd1 ([1]; TAC hearts that received NR): preserved | Mitochondrial protein hyperacetylation ([1]; WT control mice after TAC): reversed the protein hyperacetylation | Cardiac hypertrophy [2]: partially reduced | FS % [2]: increased | Increase of NAD(H) in hearts and livers, IP injection over oral administration ([3]; IP 500 mg/kg daily 10 days vs oral 400 mg/kg daily 3 or 7 days): greater increases | Levels of NAD(H) in hearts and livers ([3]; oral 400 mg/kg daily 3 or 7 days, IP 500 mg/kg daily 10 days): increased
